Source: patent US20260285853A1, “COMPOUNDS AND METHODS FOR MODULATING SPLICING” (REMIX THERAPEUTICS INC., priority 2023, published 2026)

How the values were obtained:
Format in all cases: cell-based
[1] = system: HTT mRNA; assay: Splicing RT-qPCR assay (THP), Table 2A; details: Table 2A, THP; for AC50: HTT alternative junction (AJ) mRNA, read-out: HTT AJ (AC50, increase in alternative junction mRNA); for IC50: HTT canonical junction (CJ) mRNA, read-out: HTT CJ (IC50, decrease in canonical junction mRNA)
[2] = system: MYB mRNA; assay: Splicing RT-qPCR assay (THP), Table 2A; details: Table 2A, THP; for AC50: MYB alternative junction (AJ) mRNA, read-out: MYB AJ (AC50, increase in alternative junction mRNA); for IC50: MYB canonical junction (CJ) mRNA, read-out: MYB CJ (IC50, decrease in canonical junction mRNA)
[3] = system: HTT mRNA; assay: Gene panel canonical junction qPCR assay, decrease in CJ mRNA, Table 3; details: decrease in CJ mRNA levels, canonical junction qPCR, gene panel
Procedure, shortened: (§1)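 Eleven-point dose responses from 10 uM final, 24 h, DMSO ≤0.25%, in A673 or K562 cells. Relative quantification by 2^(−ΔΔCt) against housekeeper and vehicle was converted to percent response over fixed ΔCt windows and fitted to yield IC50.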

[4] = system: MYB mRNA; assay: as above; details: decrease in CJ mRNA levels, canonical junction qPCR, gene panel
Procedure, shortened: as §1

[5] = system: SMN2 mRNA; assay: as above; details: decrease in CJ mRNA levels, canonical junction qPCR, gene panel
Procedure, shortened: as §1

[6] = system: SH-SY5Y (human neuroblastoma) cells; assay: Cell viability, Cell Titer Glo 2.0 assay; details: read-out: Viability SHSY5Y.3 GI50
Procedure, shortened: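 Following a 72 h incubation (37 °C, 5% CO2, 0.1% DMSO final), compound toxicity toward SH-SY5Y cells was quantified by CellTiter-Glo 2.0.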

SMILES	AC50 [1]	IC50 [1]	AC50 [2]	IC50 [2]	IC50 [3]	IC50 [4]	IC50 [5]	GI50 [6]
COc1c(NC(=O)c2ncc(N3CCNCC3)c3cn[nH]c23)cn2cc(C)nc2c1F [Compound 606, N-(8-fluoro-7-methoxy-2-methyl-imidazo[1,2-a]pyridin-6-yl)-4-piperazin-1-yl-1H-pyrazolo[3,4-c]pyridine-7-carboxamide]	> 10000 nM	> 10000 nM	1000 to 10000 nM	1000 to 10000 nM	> 10000 nM	> 10000 nM	100 to 1000 nM	100 to 1000 nM
COc1c(NC(=O)c2c(F)cc(N3CCNCC3)c3cn[nH]c23)cn2cc(C)nc2c1F [Compound 607, 6-fluoro-N-(8-fluoro-7-methoxy-2-methyl-imidazo[1,2-a]pyridin-6-yl)-4-piperazin-1-yl-1H-indazole-7-carboxamide]	1000 to 10000 nM	100 to 1000 nM	< 100 nM	< 100 nM	100 to 1000 nM	< 100 nM	< 100 nM	100 to 1000 nM
Cc1cn2cc(NC(=O)c3ccc(N4C[C@@H](C)N[C@@H](C)C4)c4c3nnn4C)cc(F)c2n1 [Compound 635]	1000 to 10000 nM	1000 to 10000 nM	100 to 1000 nM	100 to 1000 nM	1000 to 10000 nM	100 to 1000 nM	< 100 nM	1000 to 10000 nM
